Like-named read-outs stand apart in the source and are kept apart here.

Format in all cases: cell-based
Experiment [1] relates to NB4 leukemia cell line. The experiment can be described thus: MTS assay (CellTiter96 Aqueous One solution proliferation assay), NB4. As for the experimental part: (§1) Compounds CPF203, CPF204, CPF194, CPF210, CPF211, CPF212, CPF218 and CPT2001 were each tested in leukaemic cell lines to assess their anti-cancer efficacy. The compounds were tested using the MTS assay reagents from Promega (CellTiter96 Aqueous One solution proliferation assay). The compounds were tested between 10 μM and 0.002 μM in four fold dilutions.
(§2) The cell lines employed are set out in Tables IA and IB below and are NB4, HL60, NB4R2, K562, KG1, and U937 leukemia cell lines.
(§3) Table IA gives the IC50±standard deviation value for each cell line and compound tested and for all the cell lines together, in μM. Included in Table IA below, as a comparative example, is corresponding cell line data for cladribine. Table IB gives the IC50 value for each cell line and compound tested. Included in Table IB below, as a comparative example, is corresponding cell line data for clofarabine.

The subject of experiment [2] is HL60 leukemia cell line. Briefly: MTS assay (CellTiter96 Aqueous One solution proliferation assay), HL60. To be noted: Table IA, read-out: IC50 ± standard deviation. As for the experimental part: as §1, §2, §3
For experiment [3], the system named is NB4R2 leukemia cell line. The experiment can be described thus: MTS assay (CellTiter96 Aqueous One solution proliferation assay), NB4R2. The note with it: Table IA, read-out: IC50 ± standard deviation. Here is the method: as §1, §2, §3
The subject of experiment [4] is KG1 leukemia cell line. Briefly: MTS assay (CellTiter96 Aqueous One solution proliferation assay), KG1. To be noted: Table IA, read-out: IC50 ± standard deviation. Here is the method:
as §1, §2, §3

For experiment [5], the system named is U937 leukemia cell line. Briefly: MTS assay (CellTiter96 Aqueous One solution proliferation assay), U937. Here is the method: as §1, §2, §3
For experiment [6], the system named is leukaemic cell lines. Briefly: MTS assay, all the cell lines together. The note with it: for IC50: All lines, Table IA, read-out: IC50 ± standard deviation, all the cell lines together; for anti-leukaemic potency/activity (in words): data of Table IA. As for the experimental part: as §1, §2, §3
For experiment [7], the system named is K562 leukemia cell line. The experiment can be described thus: MTS assay (CellTiter96 Aqueous One solution proliferation assay), K562. The note with it: Table IA, read-out: IC50 ± standard deviation. Here is the method:
as §1, §2, §3

Where [8] appears, read: NB4, Table IA, read-out: IC50 ± standard deviation.
Setting [9] is: U937, Table IA, read-out: IC50 ± standard deviation.

For the compound “2-chloro-2′-deoxyadenosine-5′-[phenyl-(methoxy-L-alaninyl)]-phosphate [CPF203]”, the IC50 amounted to 1160 ± 40 nM in experiment [1] (setting [8]); 6230 ± 1750 nM in experiment [2]; 2280 ± 590 nM in experiment [3]; 2230 ± 690 nM in experiment [4]; 1290 ± 910 nM in experiment [5] (setting [9]); 2640 ± 2090 nM in experiment [6].
As for `C[C@H](NP(=O)(OC[C@H]1O[C@@H](n2cnc3c(Cl)nc(N)nc32)C[C@@H]1O)Oc1ccccc1)C(=O)OCc1ccccc1` (stereo partly drawn) [CPF194, 2-amino-6-chloropurine-2′-deoxyriboside-5′-[phenyl-(benzoxy-L-alaninyl)]-phosphate], the IC50 in experiment [4] was determined as 2640 ± 180 nM. Moreover, in experiment [6], the IC50 worked out at 2640 ± 180 nM and the “anti-leukaemic potency/activity (in words)” value is listed as “anti-leukaemic activity demonstrated”.
As for `C[C@H](NP(=O)(OC[C@H]1O[C@@H](n2cnc3c(N)nc(Cl)nc32)C[C@@H]1O)Oc1ccccc1)C(=O)OCc1ccccc1` (stereo partly drawn) [CPF204, 2-chloro-2′-deoxyadenosine-5′-[phenyl-(benzoxy-L-alaninyl)]-phosphate], the IC50 turned out to be 230 ± 100 nM in experiment [1] (setting [8]); 1750 ± 890 nM in experiment [2]; 630 ± 40 nM in experiment [3]; 670 ± 200 nM in experiment [4]; 80 ± 10 nM in experiment [5] (setting [9]); 670 ± 700 nM in experiment [6].
With `C[C@H](NP(=O)(OC[C@H]1O[C@@H](n2cnc3c(N)nc(Cl)nc32)C[C@@H]1O)Oc1cccc2ccccc12)C(=O)OCc1ccccc1` (stereo partly drawn) [CPF210, 2-chloro-2′-deoxyadenosine-5′-[1-naphthyl-(benzoxy-L-alaninyl)]-phosphate], the IC50 in experiment [1] (setting [8]) stood at 240 ± 110 nM; in experiment [2], 650 ± 190 nM; in experiment [3], 1030 ± 150 nM; in experiment [7], 2360 ± 1570 nM; in experiment [4], 1800 ± 720 nM; in experiment [5] (setting [9]) it was 190 ± 90 nM. The IC50 in experiment [6] was found to be 1040 ± 1020 nM. In experiment [6], the “anti-leukaemic potency/activity (in words)” value was “greater anti-leukaemic potency than the corresponding compound CPF203”.
As for `C[C@H](NP(=O)(OC[C@H]1O[C@@H](n2cnc3c(N)nc(Cl)nc32)C[C@@H]1O)Oc1cccc2ccccc12)C(=O)OCc1ccccc1` (stereo partly drawn) [CPF211, 2-chloro-2′-deoxyadenosine-5′-[1-naphthyl-(benzoxy-L-alaninyl)]-phosphate], the IC50 was 430 ± 40 nM in experiment [1] (setting [8]); 1660 ± 240 nM in experiment [2]; 1180 ± 210 nM in experiment [3]; 2280 ± 1320 nM in experiment [7]; 2630 ± 1190 nM in experiment [4]; 280 ± 30 nM in experiment [5] (setting [9]). Besides, the IC50 in experiment [6] was 1410 ± 1090 nM.
For the compound `C[C@H](NP(=O)(OC[C@H]1O[C@@H](n2cnc3c(N)nc(Cl)nc32)C[C@@H]1O)Oc1cccc2ccccc12)C(=O)OCc1ccccc1` (stereo partly drawn) [CPF212, 2-chloro-2′-deoxyadenosine-5′-[1-naphthyl-(benzoxy-L-alaninyl)]-phosphate], the IC50 in experiment [1] (setting [8]) turned out to be 230 ± 40 nM; in experiment [2], 1780 ± 500 nM; in experiment [3], 1010 ± 390 nM; in experiment [7] it was 5800 ± 3600 nM; in experiment [4], 1540 ± 440 nM; in experiment [5] (setting [9]), 140 ± 150 nM. Further, the IC50 in experiment [6] is 1750 ± 2340 nM.
For the compound `C[C@H](NP(=O)(OC[C@H]1O[C@@H](n2cnc3c(N)nc(Cl)nc32)C[C@@H]1O)Oc1ccc(Cl)c2ccccc12)C(=O)OCc1ccccc1` (stereo partly drawn) [CPF218, 2-chloro-2′-deoxyadenosine-5′-[4-chloro-1-naphthyl-(benzoxy-L-alaninyl)]-phosphate], the concentration for half-maximal inhibition (IC50) in experiment [1] (setting [8]) came out at 270 ± 30 nM; in experiment [2], 1750 ± 760 nM; in experiment [3], 1090 ± 40 nM; in experiment [7], 4410 ± 950 nM; in experiment [4], 1560 ± 250 nM; in experiment [5] (setting [9]) it was 550 ± 440 nM. For the same compound, the IC50 in experiment [6] turned out to be 1600 ± 1470 nM.
For the compound `C[C@@H](NP(=O)(OCC1OC(n2cnc3c(N)nc(Cl)nc32)C(F)C1O)Oc1ccccc1)C(=O)OCc1ccccc1` (stereo partly shown) [CPT2001], the IC50 in experiment [1] amounted to 120 nM; in experiment [5] (Homo sapiens, U-937), 80 nM. Moreover, the “anti-cancer activity compared to clofarabine” value in experiment [6] (data of Table IB (NB4, U937)) is “enhanced anti-cancer activity compared to clofarabine”.
`Nc1nc(Cl)nc2c1ncn2[C@H]1C[C@H](O)[C@@H](CO)O1` [Cladribine, reference compound]: the half-inhibitory concentration (IC50) in experiment [1] (setting [8]) worked out at 9390 ± 4250 nM; in experiment [2], 10300 ± 3460 nM; in experiment [3], 7810 ± 1640 nM; in experiment [4], 5480 ± 1860 nM; in experiment [5] (setting [9]) it was 2080 ± 2750 nM; in experiment [6], 7210 ± 3690 nM.
Consider `Nc1nc(Cl)nc2c1ncn2[C@@H]1O[C@H](CO)[C@@H](O)[C@@H]1F` [Clofarabine, reference compound], for which the IC50 in experiment [1] (NB4, Table IB, read-out: IC50) came to 200 nM; in experiment [5] (U937, Table IB, read-out: IC50), 260 nM.

Values taken from patent publication US8263575B2, “Phosphoramidate derivatives of nucleoside compounds for use in the treatment of cancer” (Nucana Biomed Limited, priority 2005, dated 2012).
